The text below walks through data of ChEMBL document CHEMBL5126591, “Early potential evaluation of lead compounds from a DNA-encoded library by the determination of their thermodynamics through a chromatographic method based on immobilized β2-adrenoceptor” (Bioorg Med Chem, 2022).

The target of assay [1] is T1, Beta-2 adrenergic receptor (Homo sapiens, UniProt P07550). Kind of assay: Binding affinity to immobilized Halo tag-fused beta2 adrenoceptor (unknown origin) expressed in Escherichia coli BL21 (DE3) assessed as reduction in retention time by chromatographic analysis.
Target sequence in this assay (P07550 whole entry, looked up, the tested form may be a part): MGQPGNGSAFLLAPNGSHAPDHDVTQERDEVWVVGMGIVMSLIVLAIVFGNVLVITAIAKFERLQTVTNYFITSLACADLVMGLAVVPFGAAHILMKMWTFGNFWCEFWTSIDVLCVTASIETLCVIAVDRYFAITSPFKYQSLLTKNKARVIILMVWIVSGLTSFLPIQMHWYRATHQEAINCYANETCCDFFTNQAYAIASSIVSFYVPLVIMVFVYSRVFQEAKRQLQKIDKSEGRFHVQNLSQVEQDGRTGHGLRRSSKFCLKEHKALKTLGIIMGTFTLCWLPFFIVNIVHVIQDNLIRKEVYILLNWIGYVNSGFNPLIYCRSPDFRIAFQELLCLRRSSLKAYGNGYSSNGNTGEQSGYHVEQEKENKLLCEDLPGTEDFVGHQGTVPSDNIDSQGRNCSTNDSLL
Assay [2] deals with T1, Beta-2 adrenergic receptor.
Target sequence in this assay (P07550 whole entry, looked up, the tested form may be a part): as above
Description: Binding affinity to immobilized Halo tag-fused beta2 adrenoceptor (unknown origin) expressed in Escherichia coli BL21 (DE3) assessed as retention time by chromatographic analysis
The target in assay [3] is T1, Beta-2 adrenergic receptor. Description: Displacement of [3H]-CGP12,177 from immobilized Halo tag-fused beta2 adrenoceptor (unknown origin) expressed in Escherichia coli BL21 (DE3).
Target sequence in this assay (P07550 whole entry, the tested form may be a part): as the sequence (P07550 whole entry, looked up, the tested form may be a part) above

Activity calls are given as the source filed them. The calls are words filed in the database; no cut-off is given here.

As to `CC1(C)[C@@H](O)CC[C@]2(C)[C@H]3C(=O)C=C4[C@@H]5C[C@@](C)(C(=O)NCCc6ccc(O)cc6)CC[C@]5(C)CC[C@@]4(C)[C@]3(C)CC[C@@H]12`, the result in assay [1] was Active.

`O=NO` showed a Retention time in assay [2] of 2.4 min.

Regarding `CNC(C)Cc1ccccc1OC` (centres undefined) [METHOXYPHENAMINE], in assay [3], the Ka was 2.08 10^5/M. In assay [2], this compound gave a Retention time of 4.6 min.
